{"source": "patent US5138061A", "about": "“Thioacylating reagents” (BioChem Pharma Inc., priority 1989, dated 1992)", "tested_on": "immature T-cell development (de novo antigens on T lymphocytes)", "assay": "T cell development in nude athymic mice (thymopentin vs 4-thiothymopentin)", "assay_type": "in vivo", "conditions": "20 micrograms per subject", "from_the_text": "The incorporation of thioamide linkages at positions on the peptide backbone which are susceptible to degradation may be performed in order to increase the peptide's resistance to enzymatic digestion. This enhanced stability may afford greater biological activities to the peptides prolonged existence. For example, thymopentin, which is merely a biologically active fragment of the polypeptide thymopoietin, may be modified to elicit this response. […] A control group of nude athymic mice was administered 20 micrograms of thymopentin per subject according to well-known assay techniques. See, e.g., O. Archer, T. Pierce, B. Papermanter, and R. Good, \"Reduced Antibody Response in Thymectomized Rabbits\", Nature, 195, 191 (1962); D. Oscaba and J. Miller, \"Evidence for a Humeral Thymus Factor Responsible for the Maturation of Immunological Faculty\", Nature, 199, 653 (1963); P. Magrit, \"T-Cell Development in Normal and Thymopentintreated Nude Mice\", J. Exp. Med., 156, 1057 (1982). […]\nThe immunomodulatory action of thymopentin and 4-thiothymopentin on immature T-cell development by the expression of de novo antigens on T lymphocytes after daily subcutaneous injections for two weeks in four week old nude athymic mice was measured. […]", "note": "No end group written: not given here."}
{"substance": "RKDVY [thymopentin]", "values": [{"measurement": "mean increase for the maturation of T cells and related immune responses", "result": 43, "unit": "%"}]}
